From ChEMBL document CHEMBL1201862, “PubChem BioAssay data set” (2004)
Calls of active or inactive are those of the source.

How the values were obtained:
[1] = target: Voltage-dependent T-type calcium channel subunit alpha-1H (Homo sapiens, UniProt O95180); assay type: functional;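 also: channel activity triggered by adding a high calcium stimulation buffer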
[2] = target: T1, Ubiquitin-conjugating enzyme E2 N (Homo sapiens, UniProt P61088); assay type: functional
T1 sequence (P61088 whole entry): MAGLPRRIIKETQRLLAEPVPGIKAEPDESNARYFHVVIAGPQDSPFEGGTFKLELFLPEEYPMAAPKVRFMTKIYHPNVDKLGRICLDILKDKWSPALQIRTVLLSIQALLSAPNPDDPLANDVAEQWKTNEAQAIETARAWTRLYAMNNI

[3] = target: T1, Ubiquitin-conjugating enzyme E2 N; assay type: functional; remark: listed apart in the source
Bcl-2-related protein A1 = target: T2, Bcl-2-related protein A1 (Mus musculus, UniProt Q07440); assay type: functional;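 also: confirmatory dose–response counterscreen on Bfl-1, used to check hits from a UBC13 polyubiquitin inhibitor campaign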
T2 sequence (Q07440 whole entry): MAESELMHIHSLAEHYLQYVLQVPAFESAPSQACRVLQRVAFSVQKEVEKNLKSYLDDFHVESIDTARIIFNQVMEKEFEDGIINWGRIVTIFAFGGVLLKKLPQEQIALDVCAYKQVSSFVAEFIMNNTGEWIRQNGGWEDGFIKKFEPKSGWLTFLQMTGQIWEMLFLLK

Prothrombin = Prothrombin (Homo sapiens, UniProt P00734); experiment: Thrombin 1536 HTS Dose Response Confirmation. [Related pubchem assays: 1046 (Thrombin 1536 HTS; hits were confirmed in this assay)]; assay type: functional
[4] = inhibitors of intracellular T. cruzi replication, confirmation, NIH3T3 host cells, beta-gal luminescence (AID 2044); assay type: functional, cell-based;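 also: intracellular parasites grown in NIH/3T3 mouse fibroblasts as host cells; luminescent beta-galactosidase reporter signal from transgenic T. cruzi replicating inside host cells; inhibitors lower the luminescence signal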
[5] = cytotoxicity toward NIH3T3 fibroblasts, dose response, counter-screen, cell-based, ATP luminescence, mouse fibroblasts (AID 2010); assay type: functional;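 also: cells exposed to compound for about 90 hours before reading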
[6] = growth suppression of beta-catenin-knockout colon cells, dose response, cell-based, HCT116, human colon tumor (AID 1045); assay type: functional;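 also: HCT116 colon tumor cells with beta catenin knocked out; cells exposed to compound for 60 hours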
INS1 = experiment: beta cell apoptosis inhibitors, cytokine rescue, dose response, luminescence, retest (AID 449756); assay type: functional, cell-based; conditions: Rattus norvegicus;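 also: cell death triggered by IL-1 beta plus TNF-alpha plus IFN-gamma mixture; protective hits raise ATP signal compared with cytokine alone wells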
[7] = growth suppression of PTEN-null colon cells, dose response, cell-based, HCT116 PTEN knockout (AID 1047); assay type: functional;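 also: HCT116 colon tumor cells with PTEN knocked out; cells exposed to compound for 60 hours before readout; potency for loss of cell viability measured by luminescence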
Streptococcus = experiment: Group A Streptococcus viability loss, dose response, counter-screen for streptokinase expression inhibitor project, luminescence, BacTiterGlo (AID 1915); assay type: functional, organism-based;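 also: potency for reduction of bacterial viability or growth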
[8] = Luminescence Cell-Based Dose Retest to Confirm Inhibitors of Cancer Stem Cells. [Related pubchem assays (depositor defined):AID2717, AID2721]; assay type: functional; conditions: Homo sapiens
[9] = system: Streptococcus sp. 'group A'; experiment: growth inhibition of control SK(-) GAS strain, dose response, counter-screen for streptokinase expression inhibitor project, luminescence, kanamycin, BacTiterGlo, confirmation (AID 1900); assay type: functional, organism-based
Protein RecA = target: T3, Protein RecA (Mycobacterium tuberculosis, UniProt P9WHJ3); experiment: Fluorescence Cell-Free Homogeneous Dose Retest to Identify Inhibitors of RecA-Intein Splicing Activity. [Related pubchem assays (depositor defined):AID2097, AID2223, AID489010, AID492950]; assay type: functional
T3 sequence (P9WHJ3 whole entry): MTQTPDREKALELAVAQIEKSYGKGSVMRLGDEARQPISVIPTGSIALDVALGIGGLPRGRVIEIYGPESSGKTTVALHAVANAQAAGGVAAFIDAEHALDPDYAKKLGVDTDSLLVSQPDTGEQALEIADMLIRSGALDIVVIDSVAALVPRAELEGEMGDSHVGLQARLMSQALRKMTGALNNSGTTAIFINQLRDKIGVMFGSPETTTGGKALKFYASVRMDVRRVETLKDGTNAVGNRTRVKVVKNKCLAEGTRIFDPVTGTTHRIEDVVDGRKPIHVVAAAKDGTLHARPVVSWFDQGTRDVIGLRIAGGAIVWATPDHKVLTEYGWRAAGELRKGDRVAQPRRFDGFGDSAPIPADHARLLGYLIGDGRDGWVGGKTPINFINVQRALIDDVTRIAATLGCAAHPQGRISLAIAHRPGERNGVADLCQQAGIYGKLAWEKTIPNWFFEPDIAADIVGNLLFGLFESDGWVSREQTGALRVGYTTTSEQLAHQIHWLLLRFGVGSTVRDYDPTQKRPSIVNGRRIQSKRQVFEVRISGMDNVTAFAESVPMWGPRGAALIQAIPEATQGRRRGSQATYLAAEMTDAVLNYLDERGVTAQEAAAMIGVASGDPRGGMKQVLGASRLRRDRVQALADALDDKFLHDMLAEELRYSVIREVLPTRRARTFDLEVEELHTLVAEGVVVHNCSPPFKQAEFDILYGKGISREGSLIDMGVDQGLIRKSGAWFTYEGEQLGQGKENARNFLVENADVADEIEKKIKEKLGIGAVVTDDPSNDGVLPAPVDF

Cytochrome P450 2D6 = Cytochrome P450 2D6 (Homo sapiens, UniProt P10635);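 also: CYP2D6 member of a cytochrome P450 panel assay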
Chain of Cytochrome P450 2D6 (P10635 whole entry): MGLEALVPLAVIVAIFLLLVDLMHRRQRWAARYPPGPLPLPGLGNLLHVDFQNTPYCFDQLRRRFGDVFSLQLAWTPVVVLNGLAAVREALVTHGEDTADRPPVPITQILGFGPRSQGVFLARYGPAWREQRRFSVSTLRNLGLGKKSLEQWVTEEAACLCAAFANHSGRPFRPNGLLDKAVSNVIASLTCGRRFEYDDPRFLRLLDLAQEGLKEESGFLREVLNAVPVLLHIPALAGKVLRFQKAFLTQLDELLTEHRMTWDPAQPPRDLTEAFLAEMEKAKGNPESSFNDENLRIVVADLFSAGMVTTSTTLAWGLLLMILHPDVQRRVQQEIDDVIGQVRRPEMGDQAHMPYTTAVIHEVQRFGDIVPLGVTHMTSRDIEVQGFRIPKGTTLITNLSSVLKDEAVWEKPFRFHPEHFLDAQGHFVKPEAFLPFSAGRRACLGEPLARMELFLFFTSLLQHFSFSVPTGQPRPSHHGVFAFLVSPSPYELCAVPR

[10] = target: T4, Replicative DNA helicase DnaB (Mycobacterium tuberculosis, UniProt P9WMR3); experiment: DnaB intein splicing inhibitors, dose response, biochemical, cell-free fluorescence (AID 449749); assay type: functional
T4 sequence (P9WMR3 whole entry): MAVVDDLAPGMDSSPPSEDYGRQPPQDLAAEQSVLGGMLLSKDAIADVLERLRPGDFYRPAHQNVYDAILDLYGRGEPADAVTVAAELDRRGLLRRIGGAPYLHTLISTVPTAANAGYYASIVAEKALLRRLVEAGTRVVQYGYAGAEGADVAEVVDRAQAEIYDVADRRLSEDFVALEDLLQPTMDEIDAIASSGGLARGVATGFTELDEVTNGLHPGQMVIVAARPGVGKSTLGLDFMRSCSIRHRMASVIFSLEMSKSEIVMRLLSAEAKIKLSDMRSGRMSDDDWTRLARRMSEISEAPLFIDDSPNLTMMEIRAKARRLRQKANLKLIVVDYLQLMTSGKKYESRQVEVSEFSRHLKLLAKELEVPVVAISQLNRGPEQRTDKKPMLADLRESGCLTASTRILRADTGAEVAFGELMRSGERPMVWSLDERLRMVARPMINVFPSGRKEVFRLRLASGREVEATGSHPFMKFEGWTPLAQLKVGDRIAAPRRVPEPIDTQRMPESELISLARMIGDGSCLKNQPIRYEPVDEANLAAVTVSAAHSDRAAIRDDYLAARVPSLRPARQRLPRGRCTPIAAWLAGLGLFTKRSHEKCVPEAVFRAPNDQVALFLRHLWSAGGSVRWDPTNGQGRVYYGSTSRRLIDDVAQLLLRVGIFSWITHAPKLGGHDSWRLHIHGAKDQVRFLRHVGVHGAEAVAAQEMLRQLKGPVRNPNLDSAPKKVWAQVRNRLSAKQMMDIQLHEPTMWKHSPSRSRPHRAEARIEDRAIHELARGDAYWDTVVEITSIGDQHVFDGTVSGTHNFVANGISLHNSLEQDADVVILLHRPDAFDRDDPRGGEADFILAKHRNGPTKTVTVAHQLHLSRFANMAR

Cytochrome P450 1A2 = target: T5, Cytochrome P450 1A2 (Homo sapiens, UniProt P05177);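 also: PubChem cytochrome P450 panel assay, CYP1A2 panel member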
T5 sequence (P05177 whole entry): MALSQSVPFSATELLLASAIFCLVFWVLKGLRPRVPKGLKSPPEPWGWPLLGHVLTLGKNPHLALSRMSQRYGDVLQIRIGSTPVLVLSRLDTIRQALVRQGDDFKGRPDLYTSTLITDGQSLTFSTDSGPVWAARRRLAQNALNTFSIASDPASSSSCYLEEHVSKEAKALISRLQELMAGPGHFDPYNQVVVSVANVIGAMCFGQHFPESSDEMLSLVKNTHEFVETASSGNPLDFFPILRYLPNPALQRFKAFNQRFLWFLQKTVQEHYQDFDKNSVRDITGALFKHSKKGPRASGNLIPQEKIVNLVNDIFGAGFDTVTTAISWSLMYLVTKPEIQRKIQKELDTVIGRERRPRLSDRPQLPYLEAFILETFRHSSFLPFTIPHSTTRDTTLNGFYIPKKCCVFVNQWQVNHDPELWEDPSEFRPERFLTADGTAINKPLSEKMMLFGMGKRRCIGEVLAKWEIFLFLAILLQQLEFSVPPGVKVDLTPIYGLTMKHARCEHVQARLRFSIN

[11] = THP-1 cell cytotoxicity, dose response, cytotoxicity control for Vif-APOBEC3G degradation inhibitor project, THP-1 cells (AID 1117359); assay type: functional; conditions: Human immunodeficiency virus 1, THP-1
[12] = target: T6, Heat shock factor protein 1 (Mus musculus, UniProt P38532); experiment: HSF1 potentiators in luciferase reporter cells, confirmation, cell-based, NIH3T3, luminescence, dose retest (AID 435004); assay type: functional;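 also: stress induced by proteasome inhibitor MG132 added 30 min after compound; luciferase reporter driven by HSF1 response element in NIH3T3 cells; actives raise luminescence as potentiators of the MG132 stress response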
T6 sequence (P38532 whole entry): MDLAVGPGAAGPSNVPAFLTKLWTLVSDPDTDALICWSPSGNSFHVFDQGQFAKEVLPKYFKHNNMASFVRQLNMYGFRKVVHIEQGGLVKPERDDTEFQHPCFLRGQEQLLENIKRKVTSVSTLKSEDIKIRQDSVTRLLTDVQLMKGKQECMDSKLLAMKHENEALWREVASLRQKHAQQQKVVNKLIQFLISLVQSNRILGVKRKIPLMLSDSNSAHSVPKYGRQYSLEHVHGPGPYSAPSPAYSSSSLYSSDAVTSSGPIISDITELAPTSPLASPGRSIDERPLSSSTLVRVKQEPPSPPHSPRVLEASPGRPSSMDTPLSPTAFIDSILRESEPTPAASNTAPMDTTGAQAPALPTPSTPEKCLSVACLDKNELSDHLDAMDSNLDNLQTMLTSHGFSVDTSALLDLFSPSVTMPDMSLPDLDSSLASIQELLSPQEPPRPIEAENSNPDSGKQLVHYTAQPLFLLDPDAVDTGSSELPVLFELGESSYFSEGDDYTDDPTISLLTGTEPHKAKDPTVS

Chain of Voltage-dependent T-type calcium channel subunit alpha-1H (O95180 whole entry): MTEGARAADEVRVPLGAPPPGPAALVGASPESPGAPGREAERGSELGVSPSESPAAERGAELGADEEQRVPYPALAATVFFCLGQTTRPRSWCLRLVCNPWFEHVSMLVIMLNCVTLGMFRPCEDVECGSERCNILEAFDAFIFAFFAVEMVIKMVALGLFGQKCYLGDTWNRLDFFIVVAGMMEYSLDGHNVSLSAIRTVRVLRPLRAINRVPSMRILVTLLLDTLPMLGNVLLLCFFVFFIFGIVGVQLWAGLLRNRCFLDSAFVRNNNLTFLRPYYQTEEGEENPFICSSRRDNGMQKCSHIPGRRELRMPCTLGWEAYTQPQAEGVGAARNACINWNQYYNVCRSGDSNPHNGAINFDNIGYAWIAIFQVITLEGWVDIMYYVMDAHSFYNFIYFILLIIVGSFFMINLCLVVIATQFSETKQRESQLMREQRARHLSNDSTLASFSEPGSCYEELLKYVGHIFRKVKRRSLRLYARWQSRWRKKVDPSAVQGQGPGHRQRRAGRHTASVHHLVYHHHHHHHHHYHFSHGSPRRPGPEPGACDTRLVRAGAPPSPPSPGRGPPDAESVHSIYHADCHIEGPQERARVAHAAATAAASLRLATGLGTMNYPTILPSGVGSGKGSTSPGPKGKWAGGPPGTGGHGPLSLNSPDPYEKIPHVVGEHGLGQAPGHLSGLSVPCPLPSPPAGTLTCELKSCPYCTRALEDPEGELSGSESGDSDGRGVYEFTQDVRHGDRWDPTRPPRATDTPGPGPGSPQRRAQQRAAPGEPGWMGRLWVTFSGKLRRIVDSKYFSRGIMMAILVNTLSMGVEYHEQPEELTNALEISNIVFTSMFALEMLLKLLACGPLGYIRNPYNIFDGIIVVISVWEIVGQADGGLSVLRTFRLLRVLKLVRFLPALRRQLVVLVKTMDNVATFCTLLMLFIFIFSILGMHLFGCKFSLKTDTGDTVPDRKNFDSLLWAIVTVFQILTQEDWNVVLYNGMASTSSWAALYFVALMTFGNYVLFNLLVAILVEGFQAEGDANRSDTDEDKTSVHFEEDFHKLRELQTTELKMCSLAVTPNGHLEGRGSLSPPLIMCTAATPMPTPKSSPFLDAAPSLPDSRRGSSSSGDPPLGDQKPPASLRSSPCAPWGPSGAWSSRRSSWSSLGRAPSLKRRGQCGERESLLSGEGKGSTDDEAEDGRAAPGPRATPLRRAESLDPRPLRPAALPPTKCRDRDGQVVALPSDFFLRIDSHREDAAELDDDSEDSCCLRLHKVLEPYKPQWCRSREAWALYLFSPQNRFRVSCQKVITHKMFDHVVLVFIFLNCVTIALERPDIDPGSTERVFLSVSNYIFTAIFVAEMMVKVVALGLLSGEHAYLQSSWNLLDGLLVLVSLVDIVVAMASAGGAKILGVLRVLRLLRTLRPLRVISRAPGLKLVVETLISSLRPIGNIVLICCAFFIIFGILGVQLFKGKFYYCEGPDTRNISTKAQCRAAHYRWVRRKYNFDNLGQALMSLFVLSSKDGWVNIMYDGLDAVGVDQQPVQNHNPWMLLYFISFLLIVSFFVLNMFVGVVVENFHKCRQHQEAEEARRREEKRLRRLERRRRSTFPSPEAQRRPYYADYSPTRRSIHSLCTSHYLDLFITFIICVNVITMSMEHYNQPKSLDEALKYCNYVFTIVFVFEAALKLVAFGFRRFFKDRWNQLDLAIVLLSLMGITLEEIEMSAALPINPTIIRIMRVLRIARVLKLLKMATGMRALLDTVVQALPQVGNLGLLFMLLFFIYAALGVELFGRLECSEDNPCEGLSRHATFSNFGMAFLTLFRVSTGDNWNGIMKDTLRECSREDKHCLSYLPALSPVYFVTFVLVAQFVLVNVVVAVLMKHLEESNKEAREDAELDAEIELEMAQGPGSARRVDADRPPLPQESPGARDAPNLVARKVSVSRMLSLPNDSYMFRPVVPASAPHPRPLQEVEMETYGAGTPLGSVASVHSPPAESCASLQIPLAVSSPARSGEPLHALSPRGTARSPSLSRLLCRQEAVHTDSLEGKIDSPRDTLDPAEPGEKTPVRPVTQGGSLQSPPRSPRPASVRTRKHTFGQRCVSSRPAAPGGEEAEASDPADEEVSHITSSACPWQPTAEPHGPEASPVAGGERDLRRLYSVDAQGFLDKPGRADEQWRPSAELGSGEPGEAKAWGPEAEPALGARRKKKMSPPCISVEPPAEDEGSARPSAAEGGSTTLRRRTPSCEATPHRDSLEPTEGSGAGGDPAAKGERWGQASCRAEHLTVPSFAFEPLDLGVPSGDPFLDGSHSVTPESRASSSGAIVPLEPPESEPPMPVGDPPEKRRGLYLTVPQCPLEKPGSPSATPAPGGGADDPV

## O=C(Nc1nc(-c2cccs2)cs1)c1ccc(S(=O)(=O)N2CCCCC2)cc1
[1]
  EC50: 3.4 µM (active)

## Cn1c(CNc2cccc(Cl)c2)nnc1SCC(=O)OC1CCCCC1
[1]
  EC50: 2.53 µM (active)

## CCOC(=O)C(C)Sc1cc(CS(=O)(=O)c2ccccc2)nc(-c2ccccc2)n1 (centres undefined)
[1]
  EC50: 8.17 µM (active)

## COc1ccccc1NC(=O)CSc1nnc(-c2ccoc2C)n1CCc1ccccc1
[2]
  IC50: 9.91 µM (active)
[3]
  IC50: 8.82 µM (active)
Bcl-2-related protein A1
  IC50: > 20 µM (inactive)

## O=C(O)C1CCN(c2ccc(Cl)nn2)CC1
Prothrombin
  IC50: > 50 µM (not active)

## Cc1ccc2[nH]c(SCCCCOc3ccccc3)nc2c1
[1]
  EC50: 2.25 µM (active)

## CN(CCNC(=O)C1CCN(c2ncnc3c2nc2n3CCCCC2)CC1)Cc1ccccc1
[2]
  IC50: 3.44 µM (active)
[3]
  IC50: 2.98 µM (active)
Bcl-2-related protein A1
  IC50: > 20 µM (inactive)

## Cc1ccccc1NC(=O)c1ccc(CN2CCC(Cc3ccccc3)CC2)cc1
[1]
  EC50: 0.134 µM (active)

## CCOC(=O)c1c(NC(=O)COc2ccccc2C#N)sc2c1CC(C)(C)NC2(C)C
[2]
  IC50: 5.94 µM (active)
[3]
  IC50: 4.91 µM (active)
Bcl-2-related protein A1
  IC50: > 20 µM (inactive)

## CC(C)N=C(S)N=Nc1c(O)[nH]c2ccc(C(C)C)cc12
[2]
  IC50: 19.2 µM (active)
[4]
  EC50: 2.06 µM (active)
[3]
  IC50: 3.56 µM (active)
[5]
  EC50: 11 µM (active)
Bcl-2-related protein A1
  IC50: > 20 µM (inactive)

## Nc1nc2ccccc2n1C(=O)c1ccco1
Prothrombin
  IC50: > 50 µM (not active)

## Clc1ccc2c(N/N=C/c3cccc(Br)c3)ccnc2c1
[6]
  EC50: 4.89 µM (active)
INS1
  AC50: 7.17 µM (active)
[7]
  EC50: 4.59 µM (active)
Streptococcus
  EC50: 4.4 µM (active)
[8]
  AC50: 5.63 µM (active)
[9]
  EC50: 3.24 µM (active)

## COc1ccc(-c2ccc(CCC(=O)O)n2-c2ccccc2O)cc1
Prothrombin
  IC50: 10.5 µM (active)

## CC(=O)Oc1ccc2ccccc2c1C(NC(=O)Cc1ccccc1)c1ccc(Cl)cc1 (centres undefined)
[6]
  EC50: 21.1 µM (active)
Protein RecA
  EC50: 31.6 µM (active)
Cytochrome P450 2D6
  AC50: 11.2 µM (inconclusive)
[7]
  EC50: 18.6 µM (active)
[10]
  AC50: 3.27 µM (active)
Cytochrome P450 1A2
  AC50: 6.31 µM (inconclusive)
[8]
  AC50: 3.12 µM (active)

## COc1ccc(-c2nc(C#N)c(NCc3ccccc3Cl)o2)cc1OC
[6]
  EC50: 29.1 µM (active)
[11]
  CC50: > 40 µM (active)
[7]
  EC50: 25.1 µM (active)

## CCCOc1ccc(C(=O)Nn2c(C)nc3ccccc3c2=O)cc1
[2]
  IC50: 1.54 µM (active)
[3]
  IC50: 1.32 µM (active)
Bcl-2-related protein A1
  IC50: > 20 µM (inactive)

## Cc1cccc(NC(=S)N=Nc2c(O)[nH]c3ccccc23)c1
[2]
  IC50: 15 µM (active)
[4]
  EC50: 1.53 µM (active)
[3]
  IC50: 0.594 µM (active)
[5]
  EC50: 4.49 µM (active)
[12]
  EC50: 8.45 µM (active)
Bcl-2-related protein A1
  IC50: > 20 µM (inactive)

## O=C(Nc1ccc(F)cc1F)c1ccc(-n2cncn2)nc1
Prothrombin
  IC50: > 50 µM (not active)

## COc1ccccc1NC(=O)c1sc2ncn(Cc3ccc(C)cc3)c(=O)c2c1C
Prothrombin
  IC50: > 50 µM (not active)
